Test results published in ChEMBL document CHEMBL4725384, “Monoaryl derivatives as transthyretin fibril formation inhibitors: Design, synthesis, biological evaluation and structural analysis” (Bioorg Med Chem, 2020).
Calls of active or inactive are those of the source. The calls are words filed in the database; no cut-off is given here.

Columns and labels:
[1] = biological target: Transthyretin (Homo sapiens) (UniProt P02766); experiment: Stabilization of wild type human transthyretin expressed in Escherichia coli BL21(DE3) assessed as fibril formation at 7.2 uM preincubated for 30 mins with transthyretin followed by measuring after 72 hrs maintaining pH of 4.4 by UV-Visible spectrophotometer relative to control
[2] = biological target: Transthyretin (Homo sapiens) (UniProt P02766); experiment: Stabilization of wild type human transthyretin expressed in Escherichia coli BL21(DE3) assessed as decrease in TTR-amyloid beta fibril formation at 10 uM preincubated for 6 hrs with transthyretin followed by measuring after 96 hrs maintaining pH of 4.4 by thioflavin T binding assay relative to control

With `O=C(O)CCO/N=C/c1cc(O)cc(O)c1` the Activity [1] was 39%.

With `O=C(O)CCO/N=C/c1ccc(O)cc1` the Activity [1] was 17% and the inhibition [2] was “Active”.

`O=C(O[C@@H]1Cc2c(O)cc(O)cc2O[C@@H]1c1cc(O)c(O)c(O)c1)c1cc(O)c(O)c(O)c1` gave an inhibition [2] of 53%.

In the case of `O=C(O)CCO/N=C/c1cc(Br)cc(Br)c1O`, the Activity [1] is reported as 16% and the inhibition [2] is reported as “Active”.

With `O=C(O)CO/N=C/c1ccccc1O` the Activity [1] was 100%.

With `O=C(O)CO/N=C/c1cccc(O)c1` the Activity [1] was 100%.

For `O=C(O)CCO/N=C/c1cccc(O)c1`, the Activity [1] was 42% and the inhibition [2] was “Active”.

In the case of `O=C(O)CO/N=C/c1ccc(O)cc1`, the Activity [1] is reported as 59%.

For `O=C(O)CO/N=C/c1ccc(OCC(=O)O)cc1`, the Activity [1] was 80% and the inhibition [2] was “inactive”.

`O=C(O)CO/N=C/c1cc(Br)cc(Br)c1O` was tested, and the Activity [1] was 35%.

Work on `O=C(O)CCO/N=C/c1ccc(O)c(O)c1` yielded an Activity [1] of 34%.

`O=C(O)c1cc(-c2ccc(F)cc2F)ccc1O` was tested, and the Activity [1] was 9%.

`O=C(O)CCO/N=C/c1ccccc1O` was tested, and the Activity [1] was 38% and the inhibition [2] was “Active”.

With `O=C(O)CO/N=C/c1ccccc1OCC(=O)O` the Activity [1] was 100% and the inhibition [2] was “inactive”.

`O=C(O)CO/N=C/c1cccc(OCC(=O)O)c1` was tested, and the Activity [1] was 100% and the inhibition [2] was “inactive”.

For `O=C(O)CO/N=C/c1cc(Br)cc(Br)c1OCC(=O)O`, the Activity [1] was 86% and the inhibition [2] was “inactive”.

In the case of `O=C(O)CCO/N=C/c1ccc(O)cc1O`, the Activity [1] is reported as 38% and the inhibition [2] is reported as 68%.
